Reference: ChEMBL document CHEMBL2203208, “Synthesis and structure-activity relationships of dual PI3K/mTOR inhibitors based on a 4-amino-6-methyl-1,3,5-triazine sulfonamide scaffold” (Bioorg Med Chem Lett, 2012)
Converted amounts (≈) assume the structure as drawn.

Tests used:
[1] = target: Phosphatidylinositol 4,5-bisphosphate 3-kinase catalytic subunit alpha isoform (Homo sapiens, UniProt P42336)
Description: Inhibition of human N-terminal polyHis-tagged PI3K p110alpha expressed in baculovirus infected Hi5 cells using Phosphatidylinositol-4,5-bisphosphate as substrate after 20 mins by AlphaScreen assay

physchem [2] = settings: phosphate buffered saline
Description: Equilibrium solubility of the compound in phosphate buffered saline after 48 to 72 hrs

physchem [3] = settings: 0.01N HCl
Description: Equilibrium solubility of the compound in 0.01N HCl after 48 to 72 hrs

physchem [4] = settings: simulated intestinal fluid
Description: Equilibrium solubility of the compound in simulated intestinal fluid after 48 to 72 hrs

Rattus norvegicus [5] = organism: Rattus norvegicus; settings: in vivo, iv, 1 mg/kg
Description: (§1) Mean residence time in Sprague-Dawley rat at 1 mg/kg, iv

[6] = target: T1, Phosphatidylinositol 4,5-bisphosphate 3-kinase catalytic subunit delta isoform (Homo sapiens, UniProt O00329)
T1 sequence (O00329 whole entry): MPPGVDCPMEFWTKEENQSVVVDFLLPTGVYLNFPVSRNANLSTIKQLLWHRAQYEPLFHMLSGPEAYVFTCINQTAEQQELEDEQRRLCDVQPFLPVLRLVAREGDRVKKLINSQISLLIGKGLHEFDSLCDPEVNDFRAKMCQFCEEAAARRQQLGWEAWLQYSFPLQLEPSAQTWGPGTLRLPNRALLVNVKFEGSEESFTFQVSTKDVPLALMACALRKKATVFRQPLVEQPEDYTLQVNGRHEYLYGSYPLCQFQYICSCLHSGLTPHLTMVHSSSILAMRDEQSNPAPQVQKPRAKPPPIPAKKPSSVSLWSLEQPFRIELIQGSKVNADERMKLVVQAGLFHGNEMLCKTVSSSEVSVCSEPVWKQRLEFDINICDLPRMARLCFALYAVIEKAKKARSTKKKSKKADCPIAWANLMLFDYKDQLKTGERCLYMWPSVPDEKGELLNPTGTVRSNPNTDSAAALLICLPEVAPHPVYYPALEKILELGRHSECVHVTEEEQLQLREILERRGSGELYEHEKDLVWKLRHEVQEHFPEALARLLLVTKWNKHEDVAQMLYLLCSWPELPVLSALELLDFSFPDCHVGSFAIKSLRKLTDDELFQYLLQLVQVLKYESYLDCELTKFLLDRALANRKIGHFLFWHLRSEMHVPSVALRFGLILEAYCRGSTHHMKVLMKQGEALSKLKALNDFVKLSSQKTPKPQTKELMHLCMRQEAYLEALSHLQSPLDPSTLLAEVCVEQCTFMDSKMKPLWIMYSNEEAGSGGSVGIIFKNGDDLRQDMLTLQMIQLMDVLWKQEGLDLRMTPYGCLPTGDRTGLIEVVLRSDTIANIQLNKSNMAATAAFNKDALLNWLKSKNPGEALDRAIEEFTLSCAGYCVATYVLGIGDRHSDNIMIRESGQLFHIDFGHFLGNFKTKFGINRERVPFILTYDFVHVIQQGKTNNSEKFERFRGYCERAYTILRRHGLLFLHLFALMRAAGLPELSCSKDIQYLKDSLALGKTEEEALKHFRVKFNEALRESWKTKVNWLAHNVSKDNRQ
Description: Inhibition of human N-terminal polyHis-tagged PI3K p110delta expressed in baculovirus infected Hi5 cells using Phosphatidylinositol-4,5-bisphosphate as substrate after 20 mins by AlphaScreen assay

Rattus norvegicus [7] = organism: Rattus norvegicus; settings: in vivo, po, 2 mg/kg
[8] = target: Phosphatidylinositol 4,5-bisphosphate 3-kinase catalytic subunit beta isoform (Homo sapiens, UniProt P42338)
Description: Inhibition of human N-terminal polyHis-tagged PI3K p110beta expressed in baculovirus infected Hi5 cells using Phosphatidylinositol-4,5-bisphosphate as substrate after 20 mins by AlphaScreen assay

Rattus norvegicus [9] = organism: Rattus norvegicus; settings: in vivo, po, 2 mg/kg; remark: listed apart in the source
[10] = target: Phosphatidylinositol 3-kinase catalytic subunit type 3 (Homo sapiens, UniProt Q8NEB9); test: Inhibition of human VPS34 using phosphatidylinositol/phosphatidylserine as substrate after 30 mins by fluorescence-based immunoassay
Rattus norvegicus [11] = organism: Rattus norvegicus; settings: in vivo, iv, 1 mg/kg; remark: listed apart in the source
Description: (§2) Clearance in Sprague-Dawley rat at 1 mg/kg, iv

[12] = target: Phosphatidylinositol 4,5-bisphosphate 3-kinase catalytic subunit gamma isoform (Homo sapiens, UniProt P48736); set-up: species or system BTI-TN-5B1-4
in vitro [13] = settings: human, liver microsomes
Description: Clearance in human liver microsomes at 1 uM after 30 mins in presence of NADPH

in vitro [14] = settings: rat, liver microsomes
Description: Clearance in rat liver microsomes at 1 uM after 30 mins in presence of NADPH

Rattus norvegicus [15] = organism: Rattus norvegicus; settings: in vivo, iv, 1 mg/kg; remark: listed apart in the source
[16] = target: Serine/threonine-protein kinase mTOR (Homo sapiens, UniProt P42345)
Description: Inhibition of recombinant N-terminal GST-tagged mTOR using GFP-4EBP as substrate after 90 mins by TR-FRET assay

in vivo [17] = settings: Sprague-Dawley, rat, iv, 1 mg/kg
Description: as §1

in vivo [18] = settings: Sprague-Dawley, rat, iv, 1 mg/kg; remark: listed apart in the source
in vivo [19] = settings: Sprague-Dawley, rat, iv, 1 mg/kg; remark: listed apart in the source
Description: as §2

in vivo [20] = settings: Sprague-Dawley, rat, po, 2 mg/kg
in vivo [21] = settings: Sprague-Dawley, rat, plasma, po, 2 mg/kg
rodent MDR1 = test: Permeability across pig LLC-PK1 cells expressing rodent MDR1; type: ADME, cell-based, Sus scrofa; settings: read-out: permeability
Mus musculus [22] = organism: Mus musculus; settings: CD1, U-87MG ATCC
Description: Inhibition of PI3K-mediated AKT Ser473 phosphorylation in human U87MG cells xenografted in po dosed CD1 nu/nu mouse after 6 hrs

[23] = Plasma protein binding in human; type: ADME, cell-free; settings: read-out: PPB (converted)
[24] = Plasma protein binding in rat; type: ADME, cell-free; settings: read-out: PPB (converted)
[25] = Plasma protein binding in dog; type: ADME, cell-free, Canis lupus familiaris; settings: read-out: PPB (converted)
[26] = target: Voltage-gated inwardly rectifying potassium channel KCNH2 (Homo sapiens, UniProt Q12809); test: Inhibition of human ERG
human MDR1 = test: Permeability across pig LLC-PK1 cells expressing human MDR1; type: ADME, cell-based, Sus scrofa; settings: read-out: permeability
Mus musculus [27] = test: Inhibition of PI3K in human U87MG cells xenografted in po dosed CD1 nu/nu mouse assessed as plasma concentration required for inhibition of AKT ser473 phosphorylation after 6 hrs; type: functional, organism-based, U-87MG ATCC; settings: CD1, U-87 MG
[28] = Plasma protein binding in mouse; type: ADME, cell-free; settings: read-out: PPB (converted)

Phosphatidylinositol 4,5-bisphosphate 3-kinase catalytic subunit alpha isoform, sequence (P42336 whole entry, canonical isoform): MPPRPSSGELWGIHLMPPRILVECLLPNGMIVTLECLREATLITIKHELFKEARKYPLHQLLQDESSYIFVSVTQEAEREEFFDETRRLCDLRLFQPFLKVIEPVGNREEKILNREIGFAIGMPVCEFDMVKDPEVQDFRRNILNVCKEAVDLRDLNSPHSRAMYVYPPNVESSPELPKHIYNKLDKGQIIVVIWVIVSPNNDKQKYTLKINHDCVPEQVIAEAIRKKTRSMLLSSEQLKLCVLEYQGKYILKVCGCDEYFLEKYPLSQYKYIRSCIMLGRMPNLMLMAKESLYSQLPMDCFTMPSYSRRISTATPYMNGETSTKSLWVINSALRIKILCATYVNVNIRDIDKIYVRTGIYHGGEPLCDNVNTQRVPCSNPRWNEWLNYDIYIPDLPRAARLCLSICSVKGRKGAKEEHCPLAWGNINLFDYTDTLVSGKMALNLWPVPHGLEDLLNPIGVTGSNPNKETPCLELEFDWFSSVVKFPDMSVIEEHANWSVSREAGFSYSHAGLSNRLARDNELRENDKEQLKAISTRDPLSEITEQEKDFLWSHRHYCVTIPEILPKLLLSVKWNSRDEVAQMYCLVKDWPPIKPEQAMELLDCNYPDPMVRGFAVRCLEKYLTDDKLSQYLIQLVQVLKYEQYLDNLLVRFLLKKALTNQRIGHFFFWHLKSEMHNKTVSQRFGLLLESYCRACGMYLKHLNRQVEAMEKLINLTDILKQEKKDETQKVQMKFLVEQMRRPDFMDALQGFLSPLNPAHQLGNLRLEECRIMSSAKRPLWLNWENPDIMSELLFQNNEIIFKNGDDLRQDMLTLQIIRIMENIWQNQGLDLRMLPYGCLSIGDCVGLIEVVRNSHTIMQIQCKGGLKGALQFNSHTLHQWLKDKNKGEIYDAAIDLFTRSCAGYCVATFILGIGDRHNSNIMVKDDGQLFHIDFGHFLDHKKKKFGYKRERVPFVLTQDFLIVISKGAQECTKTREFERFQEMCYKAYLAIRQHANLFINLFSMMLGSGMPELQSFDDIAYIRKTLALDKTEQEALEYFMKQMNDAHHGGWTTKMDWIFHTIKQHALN
Phosphatidylinositol 4,5-bisphosphate 3-kinase catalytic subunit gamma isoform, sequence (P48736 whole entry, canonical isoform): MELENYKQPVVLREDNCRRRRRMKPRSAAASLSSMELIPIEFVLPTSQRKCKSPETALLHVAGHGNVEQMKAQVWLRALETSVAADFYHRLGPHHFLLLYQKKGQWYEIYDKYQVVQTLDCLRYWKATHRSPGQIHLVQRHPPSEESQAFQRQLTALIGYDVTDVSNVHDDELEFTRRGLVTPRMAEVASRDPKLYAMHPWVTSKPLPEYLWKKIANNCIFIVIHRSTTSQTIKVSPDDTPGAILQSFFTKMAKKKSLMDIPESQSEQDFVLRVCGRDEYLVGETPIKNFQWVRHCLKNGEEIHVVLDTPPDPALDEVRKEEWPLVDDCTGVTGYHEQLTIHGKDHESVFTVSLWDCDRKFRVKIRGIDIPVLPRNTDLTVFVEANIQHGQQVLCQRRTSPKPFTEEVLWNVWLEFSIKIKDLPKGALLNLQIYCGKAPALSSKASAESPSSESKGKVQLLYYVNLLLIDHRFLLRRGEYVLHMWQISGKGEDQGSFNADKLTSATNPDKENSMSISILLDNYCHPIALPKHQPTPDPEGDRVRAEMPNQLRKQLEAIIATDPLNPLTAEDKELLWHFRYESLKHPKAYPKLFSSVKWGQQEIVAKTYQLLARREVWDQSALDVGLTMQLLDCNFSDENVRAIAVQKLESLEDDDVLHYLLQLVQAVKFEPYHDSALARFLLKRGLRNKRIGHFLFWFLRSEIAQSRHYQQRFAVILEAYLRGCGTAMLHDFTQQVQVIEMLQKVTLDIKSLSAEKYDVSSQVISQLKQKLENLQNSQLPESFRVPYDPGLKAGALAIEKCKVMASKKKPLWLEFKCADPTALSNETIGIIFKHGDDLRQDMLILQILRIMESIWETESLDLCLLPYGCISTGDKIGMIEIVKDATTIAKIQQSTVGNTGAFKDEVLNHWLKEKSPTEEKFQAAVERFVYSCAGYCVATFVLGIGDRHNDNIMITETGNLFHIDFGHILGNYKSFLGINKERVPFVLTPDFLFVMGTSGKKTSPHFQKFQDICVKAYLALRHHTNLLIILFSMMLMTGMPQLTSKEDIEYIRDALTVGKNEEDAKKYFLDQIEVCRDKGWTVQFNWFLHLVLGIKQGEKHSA
Phosphatidylinositol 4,5-bisphosphate 3-kinase catalytic subunit beta isoform, sequence (P42338 whole entry, canonical isoform): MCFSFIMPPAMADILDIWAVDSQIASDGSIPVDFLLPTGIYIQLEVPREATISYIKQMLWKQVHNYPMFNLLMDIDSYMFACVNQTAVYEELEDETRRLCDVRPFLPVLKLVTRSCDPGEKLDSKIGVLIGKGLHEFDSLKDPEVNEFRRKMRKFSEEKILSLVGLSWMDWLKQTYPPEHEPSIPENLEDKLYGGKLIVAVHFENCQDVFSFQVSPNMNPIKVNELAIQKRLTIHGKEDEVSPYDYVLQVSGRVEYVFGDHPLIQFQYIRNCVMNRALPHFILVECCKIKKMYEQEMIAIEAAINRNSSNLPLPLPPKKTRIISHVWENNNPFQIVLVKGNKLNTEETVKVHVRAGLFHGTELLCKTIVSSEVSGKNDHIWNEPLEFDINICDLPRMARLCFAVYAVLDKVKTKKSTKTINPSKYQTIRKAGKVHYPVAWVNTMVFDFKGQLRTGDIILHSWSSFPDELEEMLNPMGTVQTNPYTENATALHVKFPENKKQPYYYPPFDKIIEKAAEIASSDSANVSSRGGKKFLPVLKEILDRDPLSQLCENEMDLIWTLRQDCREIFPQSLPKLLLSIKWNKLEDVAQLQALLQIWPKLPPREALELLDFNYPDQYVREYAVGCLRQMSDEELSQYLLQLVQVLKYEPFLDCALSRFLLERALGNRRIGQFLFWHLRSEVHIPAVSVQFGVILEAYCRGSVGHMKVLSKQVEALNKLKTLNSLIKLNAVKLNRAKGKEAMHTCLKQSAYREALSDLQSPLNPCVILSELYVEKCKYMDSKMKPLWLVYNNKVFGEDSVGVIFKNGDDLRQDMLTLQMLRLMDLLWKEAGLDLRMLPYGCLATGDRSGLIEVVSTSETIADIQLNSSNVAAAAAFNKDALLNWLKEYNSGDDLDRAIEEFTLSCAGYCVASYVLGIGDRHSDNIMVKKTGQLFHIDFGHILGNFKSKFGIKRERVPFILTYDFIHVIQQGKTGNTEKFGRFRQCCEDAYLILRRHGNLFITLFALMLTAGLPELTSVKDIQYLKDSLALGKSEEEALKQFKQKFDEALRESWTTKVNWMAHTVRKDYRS
Phosphatidylinositol 3-kinase catalytic subunit type 3, sequence (Q8NEB9 whole entry): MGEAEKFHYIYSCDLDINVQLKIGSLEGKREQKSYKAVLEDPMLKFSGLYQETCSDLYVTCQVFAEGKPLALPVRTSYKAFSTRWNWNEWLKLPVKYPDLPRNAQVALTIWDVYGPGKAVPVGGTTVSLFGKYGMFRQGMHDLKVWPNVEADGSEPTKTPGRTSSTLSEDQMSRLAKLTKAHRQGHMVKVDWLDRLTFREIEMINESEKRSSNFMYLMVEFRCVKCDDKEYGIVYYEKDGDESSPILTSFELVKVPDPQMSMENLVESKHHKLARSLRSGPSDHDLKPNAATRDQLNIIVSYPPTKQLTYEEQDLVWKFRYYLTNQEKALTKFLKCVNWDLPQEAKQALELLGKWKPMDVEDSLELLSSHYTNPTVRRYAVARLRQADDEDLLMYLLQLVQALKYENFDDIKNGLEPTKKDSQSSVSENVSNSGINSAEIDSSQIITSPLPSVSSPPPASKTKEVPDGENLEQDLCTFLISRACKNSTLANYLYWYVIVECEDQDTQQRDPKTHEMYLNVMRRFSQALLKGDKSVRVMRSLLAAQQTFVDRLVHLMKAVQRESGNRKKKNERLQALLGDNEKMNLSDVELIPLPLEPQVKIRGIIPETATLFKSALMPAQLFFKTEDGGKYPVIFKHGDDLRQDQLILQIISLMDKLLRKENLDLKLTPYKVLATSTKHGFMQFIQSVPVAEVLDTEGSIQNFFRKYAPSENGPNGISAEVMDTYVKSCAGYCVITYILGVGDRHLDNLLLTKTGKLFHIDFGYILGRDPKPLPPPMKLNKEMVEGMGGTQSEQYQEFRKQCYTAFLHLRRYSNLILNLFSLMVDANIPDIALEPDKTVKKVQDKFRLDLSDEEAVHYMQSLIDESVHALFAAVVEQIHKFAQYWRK

Cc1nc(N)nc(-c2cccnc2Nc2cnc(Cl)c(NS(=O)(=O)N3CCOCC3)c2)n1
Ki [1]: 16 nM

Cc1nc(N)nc(-c2cc(CN3CCOCC3)cnc2Nc2cnc(Cl)c(NS(=O)(=O)N(C)C)c2)n1
Ki [1]: 1.9 nM
solubility thermodynamic (physchem [2]): 11 µg/mL (≈ 20.6 µM)
solubility thermodynamic (physchem [3]): 200 µg/mL (≈ 374 µM)
solubility thermodynamic (physchem [4]): 16 µg/mL (≈ 29.9 µM)

Cc1nc(N)nc(-c2cccnc2Nc2cnc(Cl)c(NS(=O)(=O)c3ccc(F)cc3)c2)n1
Ki [1]: 16 nM
solubility thermodynamic (physchem [2]): 2900 µg/mL (≈ 5960 µM)
solubility thermodynamic (physchem [3]): 5800 µg/mL (≈ 11900 µM)
solubility thermodynamic (physchem [4]): 46200 µg/mL (≈ 94900 µM)

Cc1nc(N)nc(-c2cccnc2Nc2cnc(Cl)c(NS(=O)(=O)N(C)C)c2)n1
Ki [1]: 11 nM
solubility thermodynamic (physchem [2]): 3600 µg/mL (≈ 8260 µM)
solubility thermodynamic (physchem [3]): 4700 µg/mL (≈ 10800 µM)
solubility thermodynamic (physchem [4]): 1000 µg/mL (≈ 2290 µM)

Cc1nc(N)nc(-c2cc(Cl)cnc2Nc2cnc(C)c(NS(C)(=O)=O)c2)n1
Ki [1]: 161 nM

Cc1nc(N)nc(-c2cc(Cl)cnc2Nc2cnc(Cl)c(NS(=O)(=O)N3CCOCC3)c2)n1
Ki [1]: 8.6 nM
solubility thermodynamic (physchem [2]): 1000 µg/mL (≈ 1950 µM)
solubility thermodynamic (physchem [3]): 1000 µg/mL (≈ 1950 µM)
solubility thermodynamic (physchem [4]): 11100 µg/mL (≈ 21700 µM)

Cc1nc(N)nc(-c2cc(Cl)cnc2Nc2cnc(Cl)c(N(C)S(C)(=O)=O)c2)n1
Ki [1]: 311 nM

Cc1nc(N)nc(-c2cccnc2Nc2cnc(Cl)c(NS(C)(=O)=O)c2)n1
Ki [1]: 20 nM
MRT (Rattus norvegicus [5]): 4.5 h
Ki [6]: 1.2 nM
AUC (Rattus norvegicus [7]): 4238 ng·h/mL
Ki [8]: 4.4 nM
solubility thermodynamic (physchem [2]): 2900 µg/mL (≈ 7130 µM)
solubility thermodynamic (physchem [3]): 5800 µg/mL (≈ 14300 µM)
F (Rattus norvegicus [9]): 33%
IC50 [10]: 1290 nM
CL (Rattus norvegicus [11]): 6.5 mL/min/kg
Ki [12]: 2.4 nM
microsomal CLint at 0.5 h, 1 µM (in vitro [13]): < 14 µL/min/mg
microsomal CLint at 0.5 h, 1 µM (in vitro [14]): < 14 µL/min/mg
Vdss (Rattus norvegicus [15]): 0.4 L/kg
IC50 [16]: 198 nM
solubility thermodynamic (physchem [4]): 46200 µg/mL (≈ 114000 µM)

Cc1nc(N)nc(-c2cccnc2Nc2cnc(Cl)c(N)c2)n1
Ki [1]: 360 nM

Cc1nc(N)nc(-c2cc(Cl)cnc2Nc2cnc(Cl)c(NS(C)(=O)=O)c2)n1
Ki [1]: 3.5 nM
solubility thermodynamic (physchem [2]): 1000 µg/mL (≈ 2270 µM)
solubility thermodynamic (physchem [3]): 1000 µg/mL (≈ 2270 µM)
solubility thermodynamic (physchem [4]): 1000 µg/mL (≈ 2270 µM)

Cc1nc(N)nc(-c2cc(CN3CCOCC3)cnc2Nc2cnc(Cl)c(NS(C)(=O)=O)c2)n1
Ki [1]: 9.7 nM
solubility thermodynamic (physchem [2]): 11 µg/mL (≈ 21.7 µM)
solubility thermodynamic (physchem [3]): 200 µg/mL (≈ 395 µM)
solubility thermodynamic (physchem [4]): 8 µg/mL (≈ 15.8 µM)

COc1cnc(Nc2cnc(Cl)c(NS(C)(=O)=O)c2)c(-c2nc(C)nc(N)n2)c1
Ki [1]: 11 nM
AUC (Rattus norvegicus [7]): 419 ng·h/mL
MRT (in vivo [17]): 1.3 h
Vd (in vivo [18]): 0.28 L/kg
solubility thermodynamic (physchem [2]): 1 µg/mL (≈ 2.29 µM)
solubility thermodynamic (physchem [3]): 1 µg/mL (≈ 2.29 µM)
F (Rattus norvegicus [9]): 1.8%
CL (Rattus norvegicus [11]): 3.5 mL/min/kg
microsomal CLint at 0.5 h, 1 µM (in vitro [13]): < 14 µL/min/mg
microsomal CLint at 0.5 h, 1 µM (in vitro [14]): < 14 µL/min/mg
solubility thermodynamic (physchem [4]): 1 µg/mL (≈ 2.29 µM)

COc1cnc(Nc2cnc(Cl)c(NS(=O)(=O)N3CCOCC3)c2)c(-c2nc(C)nc(N)n2)c1
Ki [1]: 13 nM
solubility thermodynamic (physchem [2]): 14 µg/mL (≈ 27.6 µM)
solubility thermodynamic (physchem [3]): 5 µg/mL (≈ 9.84 µM)
solubility thermodynamic (physchem [4]): 1 µg/mL (≈ 1.97 µM)

Cc1nc(N)nc(-c2cccnc2Nc2cnc(Cl)c(NS(=O)(=O)C3CC3)c2)n1
Ki [1]: 11 nM
solubility thermodynamic (physchem [2]): 1000 µg/mL (≈ 2310 µM)
solubility thermodynamic (physchem [3]): 1000 µg/mL (≈ 2310 µM)
solubility thermodynamic (physchem [4]): 3600 µg/mL (≈ 8320 µM)

COCCOc1cnc(Nc2cnc(Cl)c(NS(C)(=O)=O)c2)c(-c2nc(C)nc(N)n2)c1
Ki [1]: 18 nM
Ki [6]: 6.1 nM
Ki [8]: 16 nM
MRT (in vivo [17]): 1.1 h
Vd (in vivo [18]): 0.52 L/kg
solubility thermodynamic (physchem [2]): 34 µg/mL (≈ 70.7 µM)
solubility thermodynamic (physchem [3]): 33 µg/mL (≈ 68.6 µM)
clearance (in vivo [19]): 7.67 mL/min/kg
bioavailability (in vivo [20]): 28%
AUC (in vivo [21]): 1210 ng·h/mL
Ki [12]: 14 nM
microsomal CLint at 0.5 h, 1 µM (in vitro [13]): < 14 µL/min/mg
microsomal CLint at 0.5 h, 1 µM (in vitro [14]): < 14 µL/min/mg
IC50 [16]: 32 nM
solubility thermodynamic (physchem [4]): 43 µg/mL (≈ 89.4 µM)

Cc1nc(N)nc(-c2cccnc2Nc2cnc(Cl)c(NS(=O)(=O)N(C)C(C)C)c2)n1
Ki [1]: 43 nM

COc1ncc(Nc2ncc(Cl)cc2-c2nc(C)nc(N)n2)cc1NS(C)(=O)=O
Ki [1]: 114 nM

Cc1nc(N)nc(-c2cc(Cl)cnc2Nc2cnc(Cl)c(NS(=O)(=O)N(C)C)c2)n1
Ki [1]: 7.7 nM
Papp (rodent MDR1): 12.2 ×10⁻⁶ cm/s
inhibition (Mus musculus [22]): Dose-dependent effect
Ki [6]: 0.4 nM
Ki [8]: 0.6 nM
fraction unbound [23]: 0.002
MRT (in vivo [17]): 2.5 h
Vd (in vivo [18]): 0.97 L/kg
solubility thermodynamic (physchem [2]): 2000 µg/mL (≈ 4250 µM)
solubility thermodynamic (physchem [3]): 1000 µg/mL (≈ 2130 µM)
fraction unbound [24]: 0.002
clearance (in vivo [19]): 6.5 mL/min/kg
IC50 [10]: 606 nM
bioavailability (in vivo [20]): 63%
AUC (in vivo [21]): 3360 ng·h/mL
Ki [12]: 1 nM
microsomal CLint at 0.5 h, 1 µM (in vitro [13]): 47 µL/min/mg
microsomal CLint at 0.5 h, 1 µM (in vitro [14]): 27 µL/min/mg
fraction unbound [25]: 0.0035
inhibition (INH) [26]: Not Active
Papp (human MDR1): 12.2 ×10⁻⁶ cm/s
EC50 (Mus musculus [27]): 0.091 µg/mL (≈ 0.193 µM)
solubility thermodynamic (physchem [4]): 11600 µg/mL (≈ 24700 µM)
fraction unbound [28]: 0.0287

COCCN(C)S(=O)(=O)Nc1cc(Nc2ncc(Cl)cc2-c2nc(C)nc(N)n2)cnc1Cl
Ki [1]: 29 nM
solubility thermodynamic (physchem [2]): 1000 µg/mL (≈ 1940 µM)
solubility thermodynamic (physchem [3]): 3200 µg/mL (≈ 6220 µM)
solubility thermodynamic (physchem [4]): 3200 µg/mL (≈ 6220 µM)

Cc1nc(N)nc(-c2cc(Cl)cnc2Nc2cnc(Cl)c(NS(=O)(=O)c3cccnc3)c2)n1
Ki [1]: 13 nM

COc1cnc(Nc2cnc(Cl)c(NS(=O)(=O)N(C)C)c2)c(-c2nc(C)nc(N)n2)c1
Ki [1]: 9.3 nM
Ki [6]: 1.1 nM
Ki [8]: 4.7 nM
MRT (in vivo [17]): 2 h
Vd (in vivo [18]): 1.01 L/kg
solubility thermodynamic (physchem [2]): 4 µg/mL (≈ 8.59 µM)
solubility thermodynamic (physchem [3]): 3 µg/mL (≈ 6.44 µM)
clearance (in vivo [19]): 8.67 mL/min/kg
bioavailability (in vivo [20]): 22%
AUC (in vivo [21]): 859 ng·h/mL
Ki [12]: 2.2 nM
microsomal CLint at 0.5 h, 1 µM (in vitro [13]): 26 µL/min/mg
microsomal CLint at 0.5 h, 1 µM (in vitro [14]): 20 µL/min/mg
IC50 [16]: 74 nM
solubility thermodynamic (physchem [4]): 1 µg/mL (≈ 2.15 µM)
